In US20060199821A1, “Heterocyclic amides and sulfonamides” (Scios, Inc., priority 2003, published 2006):

Target: p38-α kinase (Homo sapiens, UniProt Q16539)
Assay: Human whole blood assay for p38 kinase inhibition, diluted (1:10) whole blood, LPS-induced TNF-α by ELISA
Format: cell-based
Conditions: LPS-stimulated TNF-α production
Experimental: For each of the assay procedures described below, the TNF-α production correlates to the activity of p38-α kinase.
A. Human Whole Blood Assay for p38 Kinase Inhibition
Venous blood is collected from healthy male volunteers into a heparinized syringe and is used within 2 hours of collection. Test compounds are dissolved in 100% DMSO and 1 μl aliquots of drug concentrations ranging from 0 to 1 mM are dispensed into quadruplicate wells of a 24-well microtiter plate (Nunclon Delta SI, Applied Scientific, So. San Francisco, Calif.). Whole blood is added at a volume of 1 ml/well and the mixture is incubated for 15 minutes with constant shaking (Titer Plate Shaker, Lab-Line Instruments, Inc., Melrose Park, Ill.) at a humidified atmosphere of 5% CO2 at 37° C. Whole blood is cultured either undiluted or at a final dilution of 1:10 with RPMI 1640 (Gibco 31800+NaHCO3, Life Technologies, Rockville, Md. and Scios, Inc., Sunnyvale, Calif.). At the end of the incubation period, 10 μl of LPS (E. coli 0111:B4, Sigma Chemical Co., St. Louis, Mo.) is added to each well to a final concentration of 1 or 0.1 μg/ml for undiluted or 1:10 diluted whole blood, respectively. The incubation is continued for an additional 2 hours. The reaction is stopped by placing the microtiter plates in an ice bath and plasma or cell-free supernates are collected by centrifugation at 3000 rpm for 10 minutes at 4° C. The plasma samples are stored at −80° C. until assayed for TNF-α levels by ELISA, following the directions supplied by Quantikine Human TNF-α assay kit (R&D Systems, Minneapolis, Minn.).
IC50 values are calculated using the concentration of inhibitor that causes a 50% decrease as compared to a control. IC50 values can be determined with curve-fitting plots available with common software packages. Approximate IC50 values can be calculated using formula: IC50 (app)=A×i/(1−A)
where A=fractional activity and i=total inhibitor concentration.
IC50 values are calculated using the concentration of inhibitor that causes a 50% decrease as compared to a control.

p38-α kinase, sequence (Q16539 whole entry): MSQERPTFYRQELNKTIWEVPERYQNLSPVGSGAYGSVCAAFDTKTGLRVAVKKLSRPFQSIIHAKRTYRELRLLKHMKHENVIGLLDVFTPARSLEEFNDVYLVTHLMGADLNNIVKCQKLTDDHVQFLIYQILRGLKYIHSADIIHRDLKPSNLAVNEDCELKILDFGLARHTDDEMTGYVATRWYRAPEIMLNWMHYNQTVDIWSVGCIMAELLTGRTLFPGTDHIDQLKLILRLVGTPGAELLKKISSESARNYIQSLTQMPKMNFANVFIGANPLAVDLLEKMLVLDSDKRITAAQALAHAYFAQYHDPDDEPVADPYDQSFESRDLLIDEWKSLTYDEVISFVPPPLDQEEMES

IC50 [µM]	Structure (SMILES)
< 1	C[C@H](Nc1nccc(N(C)C(=O)c2ccc3ccccc3c2)n1)c1ccccc1 [Example 77]
< 1	CCN(C(=O)c1ccc2ccccc2c1)c1ccnc(N[C@@H](C)c2ccccc2)n1 [Example 20, Naphthalene-2-carboxylic acid ethyl-[2-(1S-phenyl-ethylamino)-pyrimidin-4-yl]-amide]
< 1	CC(C)N(C(=O)c1ccc2ccccc2c1)c1ccnc(N[C@@H](C)c2ccccc2)n1 [Example 73]

The next lines start with the molecule.

Structure (SMILES)	IC50 [µM]
CCN(C(=O)c1ccc2c(c1)CCO2)c1ccnc(N[C@@H](C)c2ccccc2)n1 [Example 84]	< 1
C[C@H](Nc1nccc(N(Cc2cccnc2)C(=O)c2ccc3ccccc3c2)n1)c1ccccc1 [Example 83]	< 1
C[C@H](Nc1nccc(N(Cc2ccc(F)cc2)C(=O)c2ccc3ccccc3c2)n1)c1ccccc1 [Example 70]	< 1
COCCN(C(=O)c1ccc2ccccc2c1)c1ccnc(N[C@@H](C)c2ccccc2)n1 [Example 76]	< 1
